Reference: ChEMBL document CHEMBL3988442, “University of Dundee, Small-Polar-MMV Screening Library” (2021)
Where “and” joins values, the source holds several entries; their conditions need not be identical. Equal entries are not always repeated.

Columns and labels:
Histidine--tRNA ligase [1] = biological target: T1, Histidine--tRNA ligase (Trypanosoma cruzi (strain CL Brener), UniProt Q4DA54); assay: Trypanosoma cruzi histidyl tRNA synthetase (Tc-HisRS); type: functional
T1 sequence (Q4DA54 whole entry): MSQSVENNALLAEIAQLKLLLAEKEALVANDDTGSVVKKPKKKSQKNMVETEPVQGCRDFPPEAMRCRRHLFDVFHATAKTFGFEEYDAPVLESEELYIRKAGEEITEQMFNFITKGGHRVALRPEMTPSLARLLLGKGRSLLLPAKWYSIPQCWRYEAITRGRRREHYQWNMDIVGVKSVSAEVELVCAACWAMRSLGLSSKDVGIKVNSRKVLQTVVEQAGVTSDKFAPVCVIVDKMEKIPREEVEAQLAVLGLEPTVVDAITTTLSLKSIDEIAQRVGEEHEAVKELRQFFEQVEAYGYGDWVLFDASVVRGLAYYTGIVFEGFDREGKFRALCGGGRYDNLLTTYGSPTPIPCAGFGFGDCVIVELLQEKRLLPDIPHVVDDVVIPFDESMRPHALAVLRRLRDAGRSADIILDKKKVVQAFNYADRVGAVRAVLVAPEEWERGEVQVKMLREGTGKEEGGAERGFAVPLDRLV

Histidine--tRNA ligase [2] = biological target: T2, Histidine--tRNA ligase (Leishmania infantum, UniProt A4I591); assay: Leishmania infantum Histidine tRNA synthetase (LdHisRS); type: functional
T2 sequence (A4I591 whole entry): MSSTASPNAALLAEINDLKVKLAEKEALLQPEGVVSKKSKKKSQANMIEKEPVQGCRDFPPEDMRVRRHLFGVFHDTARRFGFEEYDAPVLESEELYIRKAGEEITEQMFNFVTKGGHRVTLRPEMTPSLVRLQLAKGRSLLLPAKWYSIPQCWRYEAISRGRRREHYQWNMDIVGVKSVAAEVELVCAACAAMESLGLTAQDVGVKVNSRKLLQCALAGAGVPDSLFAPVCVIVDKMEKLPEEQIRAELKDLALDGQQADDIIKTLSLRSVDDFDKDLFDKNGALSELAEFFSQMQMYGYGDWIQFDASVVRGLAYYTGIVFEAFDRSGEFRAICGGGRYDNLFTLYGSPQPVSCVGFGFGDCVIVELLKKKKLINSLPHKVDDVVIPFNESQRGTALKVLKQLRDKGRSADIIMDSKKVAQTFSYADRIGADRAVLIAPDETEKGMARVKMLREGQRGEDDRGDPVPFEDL

[3] = biological target: T3, Aspartate--tRNA(Asp/Asn) ligase (Mycobacterium tuberculosis (strain ATCC 25618 / H37Rv), UniProt P9WFW3); assay: Assay for Asp RNA synthetase-1 from Mycobacterium tuberculosis; type: functional
T3 sequence (P9WFW3 whole entry): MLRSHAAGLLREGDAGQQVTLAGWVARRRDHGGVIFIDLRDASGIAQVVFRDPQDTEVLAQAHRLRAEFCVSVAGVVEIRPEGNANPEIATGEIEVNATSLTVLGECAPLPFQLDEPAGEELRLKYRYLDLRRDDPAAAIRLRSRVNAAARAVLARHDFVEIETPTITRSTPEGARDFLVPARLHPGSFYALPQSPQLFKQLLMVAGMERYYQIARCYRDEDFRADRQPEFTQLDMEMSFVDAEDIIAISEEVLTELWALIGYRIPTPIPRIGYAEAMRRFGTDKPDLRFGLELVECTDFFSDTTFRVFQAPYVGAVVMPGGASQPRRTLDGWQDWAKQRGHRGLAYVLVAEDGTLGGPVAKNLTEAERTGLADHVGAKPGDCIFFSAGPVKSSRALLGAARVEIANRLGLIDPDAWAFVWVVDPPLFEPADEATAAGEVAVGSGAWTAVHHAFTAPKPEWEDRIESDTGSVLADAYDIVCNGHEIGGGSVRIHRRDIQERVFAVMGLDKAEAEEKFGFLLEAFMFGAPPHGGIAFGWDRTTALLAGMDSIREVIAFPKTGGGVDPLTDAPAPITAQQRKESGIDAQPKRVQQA

[4] = biological target: Protein translocase subunit SecA (Escherichia coli (strain K12), UniProt P10408); assay: Assay to Identify E. coli SecA ATPase Inhibitors; type: functional
Lysine--tRNA ligase = Lysine--tRNA ligase (Plasmodium falciparum (isolate 3D7), UniProt Q8IDJ8); assay: Pf-KRS-1 (Lysyl-RNA Synthetase-1, KRS-1, cytosolic KRS) from Plasmodium falciparum. Inhibitor assay, 384 well plate, luminescence read.; type: functional
[5] = microbe, parasite or virus in culture; conditions: Mycobacterium tuberculosis, 72 h, read-out: pIC50 (converted)
[6] = biological target: T4, Ubiquitin-activating enzyme e1, putative (Leishmania donovani (strain BPK282A1), UniProt E9BSI1); assay: Leishmania donovani Ubiquitin Activating Enzyme (LdE1); type: functional
T4 sequence (E9BSI1 whole entry): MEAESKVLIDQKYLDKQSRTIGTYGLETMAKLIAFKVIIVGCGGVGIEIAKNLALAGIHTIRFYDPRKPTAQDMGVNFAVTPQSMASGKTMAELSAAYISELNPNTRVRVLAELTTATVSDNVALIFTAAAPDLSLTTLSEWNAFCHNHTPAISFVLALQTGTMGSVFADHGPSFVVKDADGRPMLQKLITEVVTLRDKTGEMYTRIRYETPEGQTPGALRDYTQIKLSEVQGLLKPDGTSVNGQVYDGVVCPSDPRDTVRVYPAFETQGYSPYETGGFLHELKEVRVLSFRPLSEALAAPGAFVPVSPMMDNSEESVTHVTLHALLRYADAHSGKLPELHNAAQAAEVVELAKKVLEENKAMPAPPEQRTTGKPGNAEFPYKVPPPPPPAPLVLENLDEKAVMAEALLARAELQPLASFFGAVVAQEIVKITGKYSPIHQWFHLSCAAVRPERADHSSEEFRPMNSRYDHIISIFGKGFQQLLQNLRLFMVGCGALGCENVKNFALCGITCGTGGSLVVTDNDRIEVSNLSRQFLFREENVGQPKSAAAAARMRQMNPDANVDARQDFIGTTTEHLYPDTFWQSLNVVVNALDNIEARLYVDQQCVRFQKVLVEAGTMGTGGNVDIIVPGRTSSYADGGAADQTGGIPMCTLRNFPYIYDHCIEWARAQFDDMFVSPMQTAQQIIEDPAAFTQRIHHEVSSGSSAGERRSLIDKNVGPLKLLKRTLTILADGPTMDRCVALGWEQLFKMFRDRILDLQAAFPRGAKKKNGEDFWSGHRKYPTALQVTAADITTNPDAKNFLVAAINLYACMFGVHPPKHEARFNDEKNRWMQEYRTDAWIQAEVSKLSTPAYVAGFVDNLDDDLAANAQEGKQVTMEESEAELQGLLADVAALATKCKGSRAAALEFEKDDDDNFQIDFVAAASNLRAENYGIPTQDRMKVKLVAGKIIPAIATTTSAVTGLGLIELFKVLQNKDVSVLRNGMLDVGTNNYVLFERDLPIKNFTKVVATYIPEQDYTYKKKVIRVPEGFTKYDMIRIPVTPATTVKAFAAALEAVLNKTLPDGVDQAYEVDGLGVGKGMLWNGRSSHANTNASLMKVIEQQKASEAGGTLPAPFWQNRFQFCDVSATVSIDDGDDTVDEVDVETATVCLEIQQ

[7] = microbe, parasite or virus in culture; conditions: Mycobacterium tuberculosis, 96 h, read-out: pIC50 (converted)
[8] = biological target: T5, Coenzyme A biosynthesis bifunctional protein CoaBC (Mycobacterium tuberculosis (strain ATCC 25618 / H37Rv), UniProt P9WNZ1); assay: Biomol Green assay for MtCoaBC inhibitor, OD650 read; type: functional
T5 sequence (P9WNZ1 whole entry): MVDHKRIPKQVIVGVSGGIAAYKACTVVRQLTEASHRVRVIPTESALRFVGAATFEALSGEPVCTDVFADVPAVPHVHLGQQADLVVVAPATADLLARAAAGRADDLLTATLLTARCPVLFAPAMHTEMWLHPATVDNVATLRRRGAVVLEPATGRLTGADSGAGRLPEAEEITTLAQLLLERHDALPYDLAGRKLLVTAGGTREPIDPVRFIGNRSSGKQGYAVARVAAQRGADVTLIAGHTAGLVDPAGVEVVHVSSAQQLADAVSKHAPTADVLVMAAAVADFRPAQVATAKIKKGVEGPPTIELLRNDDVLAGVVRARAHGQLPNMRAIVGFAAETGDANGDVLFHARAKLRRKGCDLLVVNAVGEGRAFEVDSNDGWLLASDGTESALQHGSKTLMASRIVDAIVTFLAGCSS

Tryptophan--tRNA ligase = Tryptophan--tRNA ligase (Mycobacterium tuberculosis (strain ATCC 25618 / H37Rv), UniProt P9WFT3); assay: Biochemical assay for Mt-TrpRS; type: functional
Schistosoma mansoni = assay: High throughput screening of compounds against Schistosoma mansoni motility; type: functional; set-up: dose or concentration left out as unconfirmed
[9] = To identify inhibition of the IFN signalling (Jak-Stat) pathway via expression of an eGFP reporter gene under the control of an IFN-stimulated response element (ISRE) containing MxA promoter.; type: functional, Homo sapiens

Lysine--tRNA ligase, sequence (Q8IDJ8 whole entry): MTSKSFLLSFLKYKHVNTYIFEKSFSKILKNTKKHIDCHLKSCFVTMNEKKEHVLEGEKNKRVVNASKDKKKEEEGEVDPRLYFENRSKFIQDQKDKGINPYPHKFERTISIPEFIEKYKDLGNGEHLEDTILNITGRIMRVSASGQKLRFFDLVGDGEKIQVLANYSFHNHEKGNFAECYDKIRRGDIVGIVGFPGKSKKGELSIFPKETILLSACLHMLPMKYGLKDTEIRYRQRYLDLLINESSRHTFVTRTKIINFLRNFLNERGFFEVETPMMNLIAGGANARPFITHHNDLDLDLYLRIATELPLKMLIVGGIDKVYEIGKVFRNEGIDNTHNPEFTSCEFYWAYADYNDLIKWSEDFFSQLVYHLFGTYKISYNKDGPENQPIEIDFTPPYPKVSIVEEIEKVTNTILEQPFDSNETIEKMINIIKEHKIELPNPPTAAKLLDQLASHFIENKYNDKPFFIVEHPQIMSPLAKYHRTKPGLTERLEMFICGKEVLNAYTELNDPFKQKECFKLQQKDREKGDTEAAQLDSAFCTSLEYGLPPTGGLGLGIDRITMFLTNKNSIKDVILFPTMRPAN
Protein translocase subunit SecA, sequence (P10408 whole entry): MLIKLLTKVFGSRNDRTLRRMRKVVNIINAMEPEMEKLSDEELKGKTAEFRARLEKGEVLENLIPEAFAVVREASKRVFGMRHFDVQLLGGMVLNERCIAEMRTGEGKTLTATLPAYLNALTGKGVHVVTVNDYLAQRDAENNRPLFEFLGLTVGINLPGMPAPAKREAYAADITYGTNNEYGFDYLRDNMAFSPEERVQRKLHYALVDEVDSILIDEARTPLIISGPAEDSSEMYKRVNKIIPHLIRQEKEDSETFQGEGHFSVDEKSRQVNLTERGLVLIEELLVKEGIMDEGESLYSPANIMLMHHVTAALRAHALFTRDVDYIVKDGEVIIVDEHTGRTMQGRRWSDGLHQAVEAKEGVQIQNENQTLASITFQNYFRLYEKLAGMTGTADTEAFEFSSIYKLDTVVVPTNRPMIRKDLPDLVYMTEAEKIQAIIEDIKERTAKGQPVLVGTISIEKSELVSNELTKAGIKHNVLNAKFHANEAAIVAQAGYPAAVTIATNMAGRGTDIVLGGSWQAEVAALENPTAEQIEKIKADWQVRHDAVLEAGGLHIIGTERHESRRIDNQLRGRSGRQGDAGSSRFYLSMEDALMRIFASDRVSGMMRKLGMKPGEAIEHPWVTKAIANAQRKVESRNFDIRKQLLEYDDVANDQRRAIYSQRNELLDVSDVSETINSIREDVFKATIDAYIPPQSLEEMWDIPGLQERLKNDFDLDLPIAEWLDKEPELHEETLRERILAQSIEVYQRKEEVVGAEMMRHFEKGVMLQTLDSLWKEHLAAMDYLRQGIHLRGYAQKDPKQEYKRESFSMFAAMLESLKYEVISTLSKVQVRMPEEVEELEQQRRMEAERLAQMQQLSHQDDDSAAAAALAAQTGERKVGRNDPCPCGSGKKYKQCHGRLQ
Tryptophan--tRNA ligase, sequence (P9WFT3 whole entry): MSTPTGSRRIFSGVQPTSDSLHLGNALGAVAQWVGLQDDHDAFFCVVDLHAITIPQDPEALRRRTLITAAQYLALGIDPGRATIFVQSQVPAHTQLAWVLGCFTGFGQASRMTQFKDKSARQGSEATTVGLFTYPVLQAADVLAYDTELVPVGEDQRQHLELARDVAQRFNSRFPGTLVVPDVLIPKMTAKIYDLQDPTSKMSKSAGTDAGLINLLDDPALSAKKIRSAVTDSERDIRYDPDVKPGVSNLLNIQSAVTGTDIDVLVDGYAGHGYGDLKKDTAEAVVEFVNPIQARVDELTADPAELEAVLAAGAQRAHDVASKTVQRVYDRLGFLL

| Compound | IC50 (Histidine--tRNA ligase [1]) | IC50 (Histidine--tRNA ligase [2]) | IC50 [3] | IC50 [4] | IC50 (Lysine--tRNA ligase) [µM] | IC50 [5] [µM] | IC50 [6] | IC50 [7] [µM] | IC50 [8] [µM] | IC50 (Tryptophan--tRNA ligase) [µM] | Percent Effect (Schistosoma mansoni) [%] | pIC50 [9] |
| --- | --- | --- | --- | --- | --- | --- | --- | --- | --- | --- | --- | --- |
| CNc1nc2c(s1)C(c1c(F)cccc1Cl)CC(=O)N2 (configuration not stated) | 20.4 µM and 19.2 µM | 7.84 µM and 5.67 µM | 46.5 µM and 15.4 µM | 20.4 µM and 24.2 µM | > 50.1 | – | – | – | – | – | – | – |
| COc1cccc(C2CC(=O)Nc3nc(N)sc32)c1OC (configuration not stated) | 3.98 µM and 3.84 µM | 1.21 µM and 1.37 µM | 2.74 µM and 8.57 µM | 9.52 µM and 9.23 µM | > 50.1 | 42.2 | 45.3 µM and 45 µM | 44.8 | – | – | – | – |
| CCC(C)CNc1ccc2oc(COC)nc2c1 (configuration not stated) | – | 11.1 µM and 14.1 µM | 36.7 µM and 47.3 µM | – | > 50.1 | 49.1 | > 100 µM | 34.4 | – | – | – | – |
| COCc1nc2cc(NCc3ccncc3)ccc2o1 | – | 4.22 µM and 3.13 µM | 11.6 µM and 26.4 µM | – | – | – | 50.3 µM and 60.4 µM | – | > 50.1 | – | – | – |
| Cc1cc(CN2CCc3nn(C)c(=O)cc3C2)on1 | – | 35.6 µM and 40.1 µM | > 100 µM | – | > 50.1 | – | – | – | – | > 195 | -21.81 | – |
| CCCN(C(=O)c1ccccn1)c1nc2c(s1)CCc1c-2cnn1C | – | 18.7 µM and 14.4 µM | 27.3 µM and 35.3 µM | – | > 50.1 | – | > 100 µM | – | – | – | – | – |
| Cn1cc(NC(=O)N2CCC(c3ccccc3)CC2)ccc1=O | 63 µM and 58.7 µM | 2.98 µM and 3.9 µM | 13.6 µM and 15.7 µM | – | > 50.1 | – | > 100 µM | – | – | – | – | – |
| Cn1cc(NS(=O)(=O)c2ccc(OC(F)(F)F)cc2)ccc1=O | – | 25.5 µM and 16.7 µM | 98.4 µM and 74.5 µM | – | > 50.1 | – | – | – | – | – | – | 5.067 and 4.969 |
| Cc1ccc(-c2nc(CN3CCc4nn(C)c(=O)cc4C3)co2)cc1 | – | 14.2 µM and 25.1 µM | > 100 µM and 52.7 µM | – | – | – | > 100 µM | – | – | – | – | – |
| Cn1nc2c(cc1=O)CN(Cc1coc(-c3cccs3)n1)CC2 | – | 13.1 µM and 11.1 µM | 51.7 µM and 65.4 µM | – | – | – | > 100 µM | – | – | – | – | – |
| Cn1nc2c(cc1=O)CN(Cc1nnc(C3CC3)o1)CC2 | – | 17.5 µM and 14.6 µM | 77.5 µM and > 100 µM | – | > 50.1 | – | > 100 µM | – | > 30.2 | – | – | – |
